# Results from patent US7829063B2, “Development of molecular imaging probes for carbonic anhydrase-IX using click chemistry” (Siemens Medical Solutions USA, Inc., priority 2007, dated 2010).
# Target: T1, CA-IX (Homo sapiens, UniProt Q16790)
# T1 construct: His tag (C); purchased R&D Systems Inc. 2188-CA; host or cells: mouse myeloma cell line NS0
# Assay: Binding affinity (Kd) determination for CA-IX inhibitors, DNSA fluorescence competition assay, Scatchard plots
# Conditions: Table 3
# Procedure: General. […] The human red blood cells were obtained from Research Blood Components, LLC. All absorbance measurements were performed on a SPECTRA MAX M2 plate reader at 25° C. The LC/MS analyses were performed on an Agilent 1100 series LC/MSD (SL) using a 30×2.1 mm Zorbax C8 column with a Phenomenex C18 pre-column. Compound detection was accomplished by electrospray mass spectroscopy in positive selected ion mode (LC/MS-SIM). The elution solvents were acetonitrile and water, contained 0.05% TFA. Nuclear magnetic resonance (NMR) spectra were obtained on a Bruker AMX 300 MHz spectrometer or a Varian 400. 19F NMR spectra were recorded on a Bruker AMX 282.35 MHz or a Varian 400 spectrometer. The mass spectra were recorded on an Agilent 1100 series LC/MSD with electrospray mass spectroscopic detection. Flash column chromatography was performed on Merck silica gel (40-63 μm) using the solvent system indicated. The radiochemical and chemical purities were analyzed by RP-HPLC.
# General Procedure of Binding Affinity (Ka) Determination for CA-IX Inhibitors
# The assay was based on the observation that the only fluorescence signal detected at 460 nm upon excitation at 290 nm, an absorption […] for DNSA, was that of the DNSA.CA complex. […] The latter were developed for each test compound using mass balance for calculating the concentration of CA bound to DNSA [DNSA.CA], bound to the non-fluorescent sample [CA.Inh] and free CA [CA] in solution. The Kd values were determined from Scatchard plots using the equation below as described by Whitesides et al. [CA.Inh]/[CA]tot.[Inh]=K11^inh−K11^inh{[CA.Inh]+[CA.DNSA]}/([CA]tot)
# The terms [CA.DNSA], [CA.Inh], and free CA were calculated using the mass balance based on the known values for the dissociation constant of CA.DNSA and the total concentration of CA in each reaction.
row,SMILES,Kd [nM]
1,"NS(=O)(=O)c1nc2ccc(OCc3cn(CC(=O)N[C@@H](Cc4ccc(OCC(O)CF)cc4)C(=O)O)nn3)cc2s1 (stereo partly drawn) [VM4041, (S)-3-(4-(3-fluoro-2-hydroxypropoxy)phenyl)-2-(2-(4-((2-sulfamoylbenzo[d]thiazol-6-yloxy)methyl)-1H-1,2,3-triazol-1-yl)acetamido)propanoic acid]",5
2,NS(=O)(=O)c1nc2ccc(OCc3cn([C@@H](Cc4ccc(OCCF)cc4)C(=O)N[C@@H](CC(=O)O)c4ccccc4)nn3)cc2s1 [DHK2-135],5
3,"NS(=O)(=O)c1nc2ccc(OCc3cn([C@@H](Cc4ccc(OCCF)cc4)C(=O)N[C@@H](Cc4ccc(C(F)(F)F)cc4)C(=O)O)nn3)cc2s1 [DHK2-134, (S)-2-((S)-3-(4-(2-fluoroethoxy)phenyl)-2-(4-((2-sulfamoylbenzo[d]thiazol-6-yloxy)methyl)-1H-1,2,3-triazol-1-yl)propanamido)-3-(4-(trifluoromethyl)phenyl)propanoic acid]",0.5
4,NS(=O)(=O)c1nc2ccc(OCc3cn(CC(=O)N[C@@H](CSCc4ccccc4)C(=O)O)nn3)cc2s1 [DHK161],10
5,N#Cc1ccc(C[C@H](CC(=O)[C@H](Cc2ccc(OCCF)cc2)n2cc(COc3ccc4nc(S(N)(=O)=O)sc4c3)nn2)C(=O)O)cc1 [DHK2-187],17
6,"NS(=O)(=O)c1nc2ccc(OCc3cn([C@@H](CCCCNC(=O)CCC(=O)O)C(=O)NCc4ccc(C(F)(F)F)cc4)nn3)cc2s1 [BD2-47, (S)-4-oxo-4-(6-oxo-5-(4-((2-sulfamoylbenzo[d]thiazol-6-yloxy)methyl)-1H-1,2,3-triazol-1-yl)-6-(4-(trifluoromethyl)benzylamino)hexylamino)butanoic acid]",20
7,COC(=O)[C@@H](CSCc1cccc(O)c1)NC(=O)[C@H](CCO)n1cc(COc2ccc3nc(S(N)(=O)=O)sc3c2)nn1 [VM2-93],10
8,NS(=O)(=O)c1nc2ccc(OCc3cn([C@@H](Cc4ccc(OCCF)cc4)C(=O)N4CCC(C(=O)O)CC4)nn3)cc2s1 [DHK2-120],5
9,"NS(=O)(=O)c1nc2ccc(OCc3cn(CC(=O)N[C@@H](Cc4ccc(OCCF)cc4)C(=O)O)nn3)cc2s1 [UG3150, (S)-3-(4-(2-fluoroethoxy)phenyl)-2-(2-(4-((2-sulfamoylbenzo[d]thiazol-6-yloxy)methyl)-1H-1,2,3-triazol-1-yl)acetamido)propanoic acid]",3.3
10,COC(=O)C[C@H](NC(=O)[C@H](C(C)C)n1cc(COc2ccc3nc(S(N)(=O)=O)sc3c2)nn1)c1ccc(C(F)(F)F)cc1 [DHK2-130],5
11,"NS(=O)(=O)c1nc2ccc(OCc3cn([C@@H](Cc4ccc(OCC(O)CF)cc4)C(=O)N[C@@H](Cc4ccc(C(F)(F)F)cc4)C(=O)O)nn3)cc2s1 (stereo partly drawn) [DHK2-173, (2S)-2-((2S)-3-(4-(3-fluoro-2-hydroxypropoxy)phenyl)-2-(4-((2-sulfamoylbenzo[d]thiazol-6-yloxy)methyl)-1H-1,2,3-triazol-1-yl)propanamido)-3-(4-(trifluoromethyl)phenyl)propanoic acid]",2
12,"NS(=O)(=O)c1nc2ccc(OCc3cn(CC(=O)N[C@H](CSCc4cccc(OCCn5cc(CCCF)nn5)c4)C(=O)O)nn3)cc2s1 [BW2-27, (S)-3-(3-(2-(4-(3-fluoropropyl)-1H-1,2,3-triazol-1-yl)ethoxy)benzylthio)-2-(2-(4-((2-sulfamoylbenzo[d]thiazol-6-yloxy)methyl)-1H-1,2,3-triazol-1-yl)acetamido)propanoic acid]",10
13,"CC(C)C(C(=O)N[C@@H](Cc1ccc(OC(CO)CF)cc1)C(=O)O)n1cc(COc2ccc3nc(S(N)(=O)=O)sc3c2)nn1 (single isomer, unassigned) [GGC121B]",13
14,NS(=O)(=O)c1nc2ccc(OCc3cn([C@@H](Cc4ccc(OCCF)cc4)C(=O)N[C@@H](Cc4c[nH]c5ccccc45)C(=O)O)nn3)cc2s1 [DHK2-180],14
15,CC(C)[C@@H](C(=O)NCc1ccc(C(F)(F)F)cc1)n1cc(COc2ccc3nc(S(N)(=O)=O)sc3c2)nn1 [DHK2-24],1
16,CC1(C)O[C@@H](CF)[C@H](COc2ccc(CC(C(=O)NC(Cc3ccc(C(F)(F)F)cc3)C(=O)O)n3cc(COc4ccc5nc(S(N)(=O)=O)sc5c4)nn3)cc2)O1 (stereo partly shown) [BW-369-1B],2.5
17,"CC(C)C(C(=O)NC(COCc1cccc(OCCO)c1)C(=O)O)n1cc(COc2ccc3nc(S(N)(=O)=O)sc3c2)nn1 (single isomer, unassigned) [VM3-165B]",11
18,"COC(=O)[C@@H](CSCc1cccc(OCCOCCOCCF)c1)NC(=O)Cn1cc(COc2ccc3nc(S(N)(=O)=O)sc3c2)nn1 [BW2-41, (S)-methyl 3-(3-(2-(2-(2-fluoroethoxy)ethoxy)ethoxy)benzylthio)-2-(2-(4-((2-sulfamoylbenzo[d]thiazol-6-yloxy)methyl)-1H-1,2,3-triazol-1-yl)acetamido)propanoate]",5

# More lines, in order of falling Kd, values ahead:
row,Kd [nM],SMILES
1,25,N[C@@H](CO)C(=O)NCCCC[C@@H](C(=O)NCc1ccc(C(F)(F)F)cc1)n1cc(COc2ccc3nc(S(N)(=O)=O)sc3c2)nn1 [DHK2-157]
2,25,CC(C)[C@@H](C(=O)NCc1ccc(CN(C)C)o1)n1cc(-c2ccc(S(N)(=O)=O)cc2)nn1 [DHK2-95]
3,17,"NS(=O)(=O)c1nc2ccc(OCc3cn([C@@H](Cc4ccc(OCCF)cc4)C(=O)O)nn3)cc2s1 [BD2-09, (S)-3-(4-(2-fluoroethoxy)phenyl)-2-(4-((2-sulfamoylbenzo[d]thiazol-6-yloxy)methyl)-1H-1,2,3-triazol-1-yl)propanoic acid]"
4,14.1,NS(=O)(=O)c1nc2ccc(OCc3cn(Cc4ccc(C(=O)O)cc4)nn3)cc2s1 [DHK159]
5,14,"NS(=O)(=O)c1nc2ccc(OCc3cn(CC(=O)N(CC(=O)O)Cc4ccc(C(F)(F)F)cc4)nn3)cc2s1 [BD3-36, 2-(2-(4-((2-sulfamoylbenzo[d]thiazol-6-yloxy)methyl)-1H-1,2,3-triazol-1-yl)-N-(4-(trifluoromethyl)benzyl)acetamido)acetic acid]"
6,11,C[N+](C)(C)C[C@H](O)CC(=O)NCCCC[C@@H](C(=O)NCc1ccc(C(F)(F)F)cc1)n1cc(COc2ccc3nc(S(N)(=O)=O)sc3c2)nn1 [DHK2-147]
7,11,"CC(C)C(C(=O)N[C@@H](Cc1ccc(OC(CO)CF)cc1)C(=O)O)n1cc(COc2ccc3nc(S(N)(=O)=O)sc3c2)nn1 (single isomer, unassigned) [GGC121A]"
8,10,"COC(=O)[C@H](C[S+]([O-])Cc1cccc(OCCF)c1)NC(=O)Cn1cc(COc2ccc3sc(S(N)(=O)=O)nc3c2)nn1 (stereo partly drawn) [VM2-126, ((2S)-methyl 3-(3-(2-fluoroethoxy)benzylsulfinyl)-2-(2-(4-((2-sulfamoylbenzo[d]thiazol-6-yloxy)methyl)-1H-1,2,3-triazol-1-yl)acetamido) propanoate]"
9,10,NS(=O)(=O)c1nc2ccc(OCc3cn([C@@H](Cc4ccccc4)C(=O)N4CCC(C(=O)O)CC4)nn3)cc2s1 [DHK2-94]
10,5,NS(=O)(=O)c1nc2ccc(OCc3cn([C@@H](Cc4ccc(OCCF)cc4)C(=O)NCc4ccc(OC(F)(F)F)cc4)nn3)cc2s1 [DHK2-176]
11,5,CCOC(=O)C1CCN(C(=O)[C@H](C(C)C)n2cc(COc3ccc4nc(S(N)(=O)=O)sc4c3)nn2)CC1 [DHK2-41]
12,5,NS(=O)(=O)c1nc2ccc(OCc3cn([C@@H](Cc4ccc(OCCF)cc4)C(=O)N[C@H](Cc4ccc(C(F)(F)F)cc4)C(=O)O)nn3)cc2s1 [DHK2-161]
13,5,NS(=O)(=O)c1nc2cc(OCc3cn(CC(=O)N[C@@H](CSCc4cccc(OCCF)c4)C(=O)O)nn3)ccc2s1 [VM2-41]
14,5,"NS(=O)(=O)c1nc2ccc(OCc3cn(CC(=O)N[C@@H](Cc4ccc(OCCO)cc4)C(=O)O)nn3)cc2s1 [VM4009, (S)-3-(4-(2-hydroxyethoxy)phenyl)-2-(2-(4-((2-sulfamoylbenzo[d]thiazol-6-yloxy)methyl)-1H-1,2,3-triazol-1-yl)acetamido)propanoic acid]"
15,3.4,NS(=O)(=O)c1nc2ccc(OCc3cn([C@@H](Cc4ccc(OCCF)cc4)C(=O)NCc4ccc(C(F)(F)F)cc4)nn3)cc2s1 [DHK2-119]
16,2.5,NS(=O)(=O)c1nc2ccc(OCc3cn([C@@H](Cc4ccccc4)C(=O)NCC4COc5ccccc5O4)nn3)cc2s1 (stereo partly shown) [DHK2-71]
17,2,"COC(=O)[C@H](Cc1ccc(C(F)(F)F)cc1)NC(=O)[C@H](Cc1ccc(OCCF)cc1)n1cc(COc2ccc3nc(S(N)(=O)=O)sc3c2)nn1 [DHK2-127, (S)-methyl 2-((S)-3-(4-(2-fluoroethoxy)phenyl)-2-(4-((2-sulfamoylbenzo[d]thiazol-6-yloxy)methyl)-1H-1,2,3-triazol-1-yl)propanamido)-3-(4-(trifluoromethyl)phenyl)propanoate]"
18,1.7,CC(C)[C@@H](C(=O)N[C@@H](CC(=O)O)c1ccc(C(F)(F)F)cc1)n1cc(COc2ccc3nc(S(N)(=O)=O)sc3c2)nn1 [DHK2-133]
19,1.7,CC1(C)O[C@@H](CF)[C@H](COc2ccc(CC(C(=O)NC(Cc3ccc(C(F)(F)F)cc3)C(=O)O)n3cc(COc4ccc5nc(S(N)(=O)=O)sc5c4)nn3)cc2)O1 (stereo partly shown) [BW-139-1A]
